Common to all, as to assay: DTP human tumour cell line panel, 48 h
The subject of assay [1] is TK-10 renal.
In assay [2] the test system is ACHN renal.
Assay [3] has as its system CCRF-CEM leukemia.
Assay [4] relates to OVCAR-8 ovarian.
Assay [5] has as its system NCI-H23 lung.
Assay [6] has as its system HCC-2998 colon.
In assay [7] the test system is EKVX NSCLC.
Assay [8] relates to NCI-H226 lung.
The test system of assay [9] is UACC-62 melanoma.
For assay [10], the system named is HOP-92 NSCLC.

The structures appear in SMILES notation.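 Briefly, cells in 96-well plates were exposed to five compound concentrations for 48 h, and endpoints were estimated by linear interpolation. Here, GI50 denotes the concentration required for 50% inhibition of growth. TGI is the concentration that stops growth completely.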 Some results are limits rather than exact numbers.

In the case of `CC(C)(C)NCC(COc1ccc([N+](=O)[O-])cc1)OP(c1ccccc1)c1ccccc1` (stereo unspecified), the TGI in assay [1] is over 100 µM; in [2], over 100 µM; in assay [3], 79.2 µM; in assay [4], over 100 µM; in assay [5] it was over 100 µM; in assay [6], over 100 µM. For the same compound, the figures for the TGI in assay [7], in assay [8] and in assay [9] were over 100 µM, 94.7 µM and over 100 µM, respectively.
As for `O=C1c2ccccc2-c2c1c1ccccc1c(=O)n2CCNCCn1c2c(c3ccccc3c1=O)C(=O)c1ccccc1-2`, the GI50 in assay [1], in [2], in assay [4], in assay [5], in assay [7] and in [8] was over 25 µM each time. Besides, the GI50 in assay [9] is over 25 µM. Besides, the TGI in assay [1], in [2], in [4], in assay [5], in assay [7] and in assay [8] was over 25 µM each time. Further, in [9], the TGI was over 25 µM.
On to `c1ccc2[nH]c(CNc3ccc(C4C[Se]N=N4)cc3)nc2c1` (stereo unspecified), for which the TGI is over 100 µM in [10]; over 100 µM in assay [1]; over 100 µM in assay [2]; 82.5 µM in assay [3]; over 100 µM in assay [4]; over 100 µM in assay [5]. The TGI is over 100 µM in assay [6] and 99 µM in assay [9].
For the compound `CC1=NN(C(=O)c2ccncc2)C(=O)C1N=Nc1ccc(F)cc1` (stereo unspecified), the TGI in assay [10], in assay [1], in assay [2], in assay [4], in assay [5] and in [7] was over 100 µM each time. Also, the TGI in assay [8] and in [9] was over 100 µM each time.
Consider `OCc1ccc(N2CCOCC2)cc1Cl`, for which the GI50 in assay [10] was 34.6 µM; in assay [1], 2.94 µM; in [2], over 100 µM; in assay [3], over 100 µM; in [4] it was over 100 µM; in assay [5] it was over 100 µM. Moreover, the GI50 was over 57.1 µM in assay [6], 0.705 µM in assay [8] and 14.4 µM in [9]. The TGI in [10] was over 100 µM; in [1], 11.4 µM; in assay [2], over 100 µM; in [3] it was over 100 µM; in assay [4], over 100 µM; in [5], over 100 µM. Moreover, the TGI in assay [6] was over 100 µM; in assay [8] it was 2.37 µM; in [9], over 91.2 µM.
Consider `N.N.N.N.N.O=S(=O)([O-])S(=O)(=O)[O-].[Co+3]`, for which the GI50 in assay [10], in [1], in assay [2], in [3], in assay [4] and in [5] was over 100 µM in each case. Moreover, the GI50 in [7] and in assay [9] was over 100 µM each time. Further, the TGI in assay [10], in assay [1], in [2], in assay [3], in [4] and in assay [5] was over 100 µM throughout. For the same compound, the concentration for total growth inhibition (TGI) in assay [7] and in assay [9] was over 100 µM throughout.
Turning to `Cc1ccc2oc(=O)c(-c3ccccc3)nc2c1`, the concentration for total growth inhibition (TGI) in [1] is over 100 µM; in assay [2], over 100 µM; in assay [3] it was over 100 µM; in assay [4] it was over 100 µM; in assay [5], 90.7 µM; in assay [6] it was 41.9 µM. Besides, the total growth inhibition concentration (TGI) in assay [7] and in [8] was over 100 µM in each case.
As to `COc1c(O)c(OC)c2oc(-c3ccc(O)cc3)c(OC)c(=O)c2c1O`, the TGI in [1], in assay [2], in assay [3], in assay [4], in assay [5] and in assay [6] was over 100 µM throughout. Further, the TGI in assay [7], in assay [8] and in assay [9] was over 100 µM in each case.
For the compound `O=C1C2=C(CCC2)Nc2cccc3ncn1c23`, the TGI in assay [1] is 75.7 µM; in assay [2], over 100 µM; in assay [3], over 100 µM; in assay [4], over 100 µM; in [5], over 100 µM; in assay [6] it was over 100 µM. The TGI in assay [7] and in assay [9] was over 100 µM each time.
Regarding `C=CC1=C(C)C2=NC1=CC1=NC(=CC3=C(C)C4=C(O)[C@H](C(=O)OC)C(=C5NC(=C2)[C@@H](C)[C@@H]5CCC(=O)O)C4=N3)C(CC)=C1C`, the total growth inhibition concentration (TGI) in [10] is 3.98 µM; in [1], 25.5 µM; in [2] it was 7.21 µM; in [4] it was over 100 µM; in assay [5], 9.12 µM; in assay [6] it was 4.23 µM. The TGI was over 100 µM in assay [8] and 7.99 µM in assay [9].
As to `C[C@]12C/C(=C/O)C(=O)C(O)=C1CC[C@@H]1C2CC[C@@]2(C)C1CC[C@@H]2O` (stereo partly specified), the TGI is 46.4 µM in assay [10]; over 100 µM in assay [1]; 72.2 µM in assay [2]; 47.5 µM in assay [3]; 75.6 µM in assay [4]; 40.3 µM in [5]. The TGI in [7] is 72.8 µM; in assay [8] it was 36.8 µM; in assay [9], 46.7 µM.
On to `COc1ccc(Nc2nccc(N3CCN(c4c5ccc(Cl)cc5nc5ccc(OC)cc45)CC3)n2)cc1`, for which the GI50 in assay [10] is 3.55 µM; in assay [1] it was 11.5 µM; in assay [2], 6.86 µM; in assay [3], 2.77 µM; in assay [4] it was 6.53 µM; in assay [5], 22.7 µM. The GI50 in assay [6] was 23.5 µM; in assay [8], 29.7 µM; in assay [9], 16.8 µM. In addition, the TGI was 77.1 µM in assay [10]; over 100 µM in [1]; over 100 µM in assay [2]; over 100 µM in assay [3]; over 100 µM in [4]; over 100 µM in assay [5]. Besides, the TGI in assay [6], in assay [8] and in [9] was over 100 µM throughout.
Consider `N#C/C(=C1\SC(N=Nc2ccc(Cl)cc2)C(=O)N1c1ccccc1)c1nc2ccccc2[nH]1` (stereo unspecified), for which the TGI in [10] is 51.9 µM; in [1], 61.6 µM; in [2], over 100 µM; in [3], 47.4 µM; in assay [4], over 100 µM; in [5], 65.8 µM. Moreover, the TGI was over 100 µM in assay [7], 77.2 µM in [8] and over 100 µM in [9].
With `c1ccc(-c2nc(N3CCCNCC3)c3nc(-c4ccccc4)oc3n2)cc1`, the GI50 in assay [1] is 1.53 µM; in [2], 1.71 µM; in assay [4], 2.13 µM; in [5] it was 1.71 µM; in assay [6], 1.53 µM; in assay [7] it was 1.65 µM. In addition, the GI50 in assay [9] was 1.81 µM. For the same compound, the total growth inhibition concentration (TGI) in assay [1] came out at 3 µM; in assay [2], 3.11 µM; in [4], 4.93 µM; in assay [5], 3.23 µM; in assay [6], 3.02 µM; in [7], 3.17 µM. The compound further yielded a TGI in assay [9] of 3.34 µM.
Take `O=C1c2ccccc2-c2c1c1c(NCCCO)nc3ccccc3c1n2Cc1ccccc1`: the GI50 in assay [10] was 12.3 µM; in [1] it was 23 µM; in assay [2], 21.4 µM; in assay [3], 17.6 µM; in assay [4] it was 35 µM; in [5], 14.4 µM. Also, the GI50 is 27.5 µM in assay [7], 41.3 µM in [8] and 18.7 µM in assay [9]. In addition, the TGI in assay [10] was 27.6 µM; in assay [1] it was 41.1 µM; in [2], 59.4 µM; in [3], 45.9 µM; in assay [4], over 100 µM; in assay [5], 34.9 µM. Also, the TGI in [7] is 64.4 µM; in [8] it was over 100 µM; in assay [9], 36.5 µM.
Turning to `Fc1ccc2nc(-c3cc(-c4ccc5c(c4)OCO5)n[nH]3)[nH]c2c1`, the GI50 in [10] was 1.87 µM; in [1] it was 7.3 µM; in [2] it was 2.74 µM; in assay [3], 2.62 µM; in assay [4], 2.99 µM; in assay [5], 6.58 µM. For the same compound, the GI50 in assay [6] is 5.56 µM; in assay [8], 3.92 µM; in [9], 4.37 µM. Also, the concentration for total growth inhibition (TGI) in [10] was 8.79 µM; in [1] it was over 45.1 µM; in [2], over 25.4 µM; in assay [3] it was over 44.7 µM; in [4] it was 16 µM; in [5], over 93.8 µM. The TGI in [6] is over 72.8 µM; in assay [8], 40.5 µM; in [9], over 52.2 µM.
Take `COc1cc(CNc2nc3ccc(C(F)(F)F)cc3nc2-c2ccccc2)cc(OC)c1OC`: the TGI in [1] was over 100 µM; in assay [3], over 100 µM; in [4], over 100 µM; in assay [5] it was over 100 µM; in assay [6], over 100 µM; in [7] it was 59.6 µM. In [9], this compound had a TGI of over 100 µM.
In the case of `CCCCCCC(C)CCCCCCCCCCC(=O)O` (stereo unspecified), the TGI in assay [10], in assay [1], in assay [2], in [3], in assay [4] and in assay [5] was over 100 µM throughout. Moreover, the total growth inhibition concentration (TGI) in assay [7], in [8] and in assay [9] was over 100 µM each time.
For `CSc1ccc(N(C)c2nc(C)nc3c2CCC3)cc1`, the GI50 in assay [2], in [3], in assay [4], in [5], in [6] and in assay [7] was under 0.01 µM each time. Further, the GI50 in assay [8] and in [9] was under 0.01 µM each time. In addition, the TGI in assay [2] is over 100 µM; in assay [3], 94.7 µM; in [4] it was over 100 µM; in assay [5] it was 33 µM; in assay [6] it was 10.8 µM; in [7] it was 82 µM. Moreover, the figures for the TGI in assay [8] and in [9] were over 100 µM and 25 µM, respectively.
For `CCOC(=O)N1CCN(CCCCCOc2ccccc2C2CCCCC2)CC1`, the GI50 in [10] is 4.07 µM; in assay [1], 7.99 µM; in assay [2], 10.6 µM; in assay [3], 4.42 µM; in [5], 3.12 µM; in [7] it was 3.23 µM. Besides, the values for the GI50 in assay [8] and in assay [9] were 3.96 µM and 4.86 µM, respectively. In addition, the TGI in assay [10] worked out at 17.5 µM; in [1], 21.7 µM; in assay [2] it was 23.8 µM; in assay [3], 18.4 µM; in assay [5] it was 5.93 µM; in assay [7], 16.5 µM. The concentration for total growth inhibition (TGI) was found to be 18.4 µM in assay [8] and 19.7 µM in assay [9].
Regarding `CN1c2ccccc2SC2C(c3ccccc3)=NOC21` (stereo unspecified), the TGI in [1] was 80 µM; in assay [2] it was over 100 µM; in assay [3], over 100 µM; in [4] it was over 100 µM; in [5] it was 71.7 µM; in assay [6] it was over 100 µM. The TGI in assay [7], in assay [8] and in [9] was over 100 µM throughout.
Consider `C=C1C2Oc3ccccc3C1N(c1ccccc1)O2` (stereo unspecified), for which the concentration for total growth inhibition (TGI) in [1] was over 100 µM; in assay [2], over 100 µM; in [3], 89.5 µM; in assay [4], 33.2 µM; in assay [6], over 100 µM; in assay [7], over 100 µM. Also, in assay [8], the TGI was over 100 µM.
Regarding `Cc1c(C(=O)/C=C/c2ccccc2[N+](=O)[O-])[n+](=O)c2ccccc2n1[O-]`, the TGI in assay [10] is 27.4 µM; in assay [2], 24.2 µM; in assay [4], 14.3 µM; in assay [5], 17.8 µM; in assay [7], 27.6 µM; in assay [8], 24 µM.
For `C=CCNC(=O)N(CCC)CCCC(NC(C)=O)C(=O)NCc1ccccc1` (stereo unspecified), the TGI in assay [10], in assay [1], in [2], in assay [3], in assay [4] and in [5] was over 100 µM in each case. Moreover, the TGI in [7], in assay [8] and in [9] was over 100 µM each time.

Source of the values: PubChem BioAssay (NCI).
